Like-named read-outs stand apart in the source and are kept apart here.

Data set [1] deals with Mtb. The data set is described as follows: microbe, parasite or virus in culture. The data set is classed as cell-based, Mycobacterium tuberculosis.
The subject of data set [2] is Mtb. Nature of the data set: Transmission electron microscopy of Mtb cell envelope thickness. The data set is classed as cell-based, Mycobacterium tuberculosis. The note with it: TEM, 1 μg/ml INH and/or 5 μM gallein for 14 days.
Data set [3] addresses IP6K1 (Homo sapiens, UniProt Q92551). The note with it: Liao 2021; read-out: IC50 as to IP6K1; cited from earlier work.
Data set [4] deals with L. pneumophila. The data set is classed as cell-based, Legionella pneumophila.
Data set [5] relates to L. monocytogenes. The data set is classed as cell-based, Listeria monocytogenes.
For data set [6], the system named is Mtb.
The test system of data set [7] is human macrophages.
Data set [8] has as its system Mtb. The data set is described as follows: microbe, parasite or virus in culture. Conditions: Mycobacterium tuberculosis, Macrophage, in Homo sapiens, 48 h, read-out: reduction of the viability of Mtb.
Data set [9] concerns the target PPK1 (Pseudomonas aeruginosa, UniProt P0DP44). The note with it: in Pseudomonas aeruginosa, Neville et al., 2021; cited from earlier work.
Data set [10] relates to PPK2. Conditions: in Pseudomonas aeruginosa, Neville et al., 2021; cited from earlier work.
Data set [11] concerns P. aeruginosa. Conditions: in Caenorhabditis elegans, Neville et al., 2021; cited from earlier work.

Chain of IP6K1 (Q92551 whole entry): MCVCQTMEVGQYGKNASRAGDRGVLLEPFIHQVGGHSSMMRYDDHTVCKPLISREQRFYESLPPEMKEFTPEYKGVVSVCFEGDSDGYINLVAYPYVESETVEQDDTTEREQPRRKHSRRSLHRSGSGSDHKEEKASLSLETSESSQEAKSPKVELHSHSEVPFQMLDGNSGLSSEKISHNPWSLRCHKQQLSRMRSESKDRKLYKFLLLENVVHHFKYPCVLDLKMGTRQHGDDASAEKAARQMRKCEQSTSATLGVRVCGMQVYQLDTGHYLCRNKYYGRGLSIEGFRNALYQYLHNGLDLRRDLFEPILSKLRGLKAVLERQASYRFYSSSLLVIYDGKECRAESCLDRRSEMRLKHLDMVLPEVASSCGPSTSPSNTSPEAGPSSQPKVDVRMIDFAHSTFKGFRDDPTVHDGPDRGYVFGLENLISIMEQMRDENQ
Chain of PPK1 (P0DP44 whole entry): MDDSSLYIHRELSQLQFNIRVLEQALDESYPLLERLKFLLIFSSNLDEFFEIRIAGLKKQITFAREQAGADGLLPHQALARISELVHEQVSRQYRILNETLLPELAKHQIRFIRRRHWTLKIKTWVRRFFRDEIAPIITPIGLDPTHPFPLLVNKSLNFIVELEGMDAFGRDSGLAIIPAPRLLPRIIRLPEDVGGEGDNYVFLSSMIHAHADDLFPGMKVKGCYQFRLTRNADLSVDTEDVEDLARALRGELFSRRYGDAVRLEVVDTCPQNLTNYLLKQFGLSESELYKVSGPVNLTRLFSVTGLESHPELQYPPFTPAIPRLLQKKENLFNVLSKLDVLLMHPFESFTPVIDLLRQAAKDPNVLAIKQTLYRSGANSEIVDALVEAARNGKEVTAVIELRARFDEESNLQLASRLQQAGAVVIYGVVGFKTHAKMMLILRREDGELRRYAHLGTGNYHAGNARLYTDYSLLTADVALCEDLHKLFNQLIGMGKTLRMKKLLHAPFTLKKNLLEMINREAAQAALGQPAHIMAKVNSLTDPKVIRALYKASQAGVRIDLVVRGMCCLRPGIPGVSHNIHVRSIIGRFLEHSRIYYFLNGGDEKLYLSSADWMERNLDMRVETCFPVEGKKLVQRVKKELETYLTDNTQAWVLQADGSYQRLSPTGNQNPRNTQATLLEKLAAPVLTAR

Regarding `NNC(=O)c1ccncc1` [INH, Isonicotinic acid hydrazide], in data set [1], the Mtb growth entry is listed as “partial but not complete reduction”. Besides, the “Mtb cell envelope thickness” value in [2] is listed as “increased”.
The term IC50 denotes the concentration at which inhibition is half-maximal. Regarding `Cn1sc(=O)n(Cc2ccccc2)c1=O` [LI-1753], in [3], the IC50 is 2150 nM.
For the compound `O=[N+]([O-])c1ccc(CNc2nc(NCc3cccc(C(F)(F)F)c3)nc3[nH]cnc23)cc1` [TNP, N6-[(4-nitrophenyl)methyl]-N2-[[3-(trifluoromethyl)phenyl]methyl]-9H-Purine-2,6-diamine], the “viability of ingested L. pneumophila compared to control” value in data set [4] is “reduced the viability”. In data set [5], the “viability of ingested L. monocytogenes compared to control” value is on record as “reduced the viability”. Besides, in [6], the “number of ingested Mtb compared to control” value is listed as “increased” and the “number of viable Mtb compared to control” value was “reduced the number of viable Mtb”. Besides, in [7], the “metabolic activity of macrophages” value is on record as “reduced the metabolic activity” and the “metabolic activity of macrophages infected with Mtb” value is reported as “did not significantly change”. The inhibition at 1 µM in data set [8] is approximately 50%.
`O=C1OC2(c3ccccc31)c1ccc(O)c(O)c1Oc1c2ccc(O)c1O` [gallein, 3′,4′,5′,6′-Tetrahydroxyspiro[isobenzofuran-1(3H),9′-(9H)xanthen]-3-one]: the “viability of ingested L. pneumophila compared to control” value in [4] is on record as “reduced the viability”. The “viability of ingested L. monocytogenes compared to control” value in data set [5] is listed as “reduced the viability”. Also, in [1], the “Mtb growth compared to control” value was “slightly slowed growth”. For the same compound, the inhibition at 50 µM in data set [1] (Mycobacterium tuberculosis, 336 h, read-out: inhibition of Mtb growth) was approximately 80%. For the same compound, the “Mtb cell envelope thickness” value in data set [2] is “did not significantly affect”. Further, in data set [6], the “ingested Mtb viability compared to control” value is given as “decreased ingested Mtb viability”, the “number of ingested Mtb compared to control” value was “increased”, the “number of viable Mtb compared to control” value is given as “reduced the number of viable Mtb” and the “viability of ingested Mtb compared to control” value is “reduced the viability”. For the same compound, the “metabolic activity of macrophages infected with Mtb” value in [7] was “did not significantly change”. Further, the “metabolic activity of macrophages” value in data set [7] (human) is “None of the concentrations of MRS2279 and gallein significantly altered”. For the same compound, the PPK1 enzyme activity result in data set [9] was “inhibits”. In addition, in data set [10], the PPK2 enzyme activity result is reported as “inhibits”. Also, the “virulence of P. aeruginosa” value in data set [11] is on record as “attenuates the virulence”.

The values are drawn from patent US20260224597A1, “METHODS FOR ACTIVATING IMMUNE CELLS TO KILL BACTERIA” (The Texas A&M University System, priority 2023, published 2026).
